Source: patent US20050004211A1, “Pharmaceutical compositions comprising aryl-substituted acyclic enediyne compounds” (KAOHSIUNG MEDICAL UNIVERSITY, priority 2003, published 2005)
Marks after values point to notes of the source that are not given here.

Key:
Breast cancer cell MCF-7 = experiment: Preliminary cytotoxicity test; assay type: cell-based, human
[1] = system: Non-small cell Lung cancer cell NCI-H460; experiment: Preliminary cytotoxicity test; assay type: cell-based, human
CNS cancer cell SF-268 = experiment: Preliminary cytotoxicity test; assay type: cell-based, human
K-562 = conditions: Table 4; for GI50: read-out: GI50 K-562; for CC50: read-out: LC50 K-562
NCI-H23 = conditions: read-out: GI50 NCI-H23; Table 4
NCI-H522 = conditions: Table 4; for GI50: read-out: GI50 NCI-H522; for CC50: read-out: LC50 NCI-H522
KM12 = conditions: Table 4; for CC50: read-out: LC50 KM12
SW-620 = conditions: Table 4; for GI50: read-out: GI50 SW-620; for CC50: read-out: LC50 SW-620
SF-295 = conditions: Table 4; for GI50: read-out: GI50 SF-295; for CC50: read-out: LC50 SF-295
U251 = conditions: Table 4; for GI50: read-out: GI50 U251; for CC50: read-out: LC50 U251
SK-MEL-5 = conditions: Table 4; for GI50: read-out: GI50 SK-MEL-5; for CC50: read-out: LC50 SK-MEL-5
IGROV1 = conditions: Table 4; for GI50: read-out: GI50 IGROV1; for CC50: read-out: LC50 IGROV1
CAKI-1 = conditions: Table 4; for GI50: read-out: GI50 CAKI-1; for CC50: read-out: LC50 CAKI-1
SN12C = conditions: read-out: GI50 SN12C; Table 4
PC-3 = conditions: read-out: GI50 PC-3; Table 4
NCI/ADR-RES = conditions: Table 4; for GI50: read-out: GI50 NCI/ADR-RES; for CC50: read-out: LC50 NCI/ADR-RES
MDA-MB-435 = conditions: read-out: GI50 MDA-MB-435; Table 4
SR = experiment: NCI full panel screen; conditions: Table 4; for GI50: read-out: GI50 SR; for CC50: read-out: LC50 SR
OVCAR-3 = experiment: NCI full panel screen; conditions: Homo sapiens; for GI50: OVCAR-3, read-out: GI50 OVCAR-3; for CC50: OVCAR-3, read-out: LC50 OVCAR-3
DU-145 = experiment: NCI full panel screen; conditions: Table 4; for GI50: read-out: GI50 DU-145; for CC50: read-out: LC50 DU-145
Leukemia cell lines = experiment: NCI full panel screen, panel average; conditions: Homo sapiens, read-out: cytotoxicity, average of all Leukemia cell lines
[2] = system: Non-Small Cell Lung Cancer cell lines; experiment: NCI full panel screen, panel average; conditions: Homo sapiens, read-out: cytotoxicity, average of all Non-Small Cell Lung Cancer cell lines
Colon Cancer cell lines = experiment: NCI full panel screen, panel average; conditions: Homo sapiens, read-out: cytotoxicity, average of all Colon Cancer cell lines
CNS Cancer cell lines = experiment: NCI full panel screen, panel average; conditions: Homo sapiens, read-out: cytotoxicity, average of all CNS Cancer cell lines
Melanoma cell lines = experiment: NCI full panel screen, panel average; conditions: Homo sapiens, read-out: cytotoxicity, average of all Melanoma cell lines
[3] = system: Ovarian Cancer cell lines; experiment: NCI full panel screen, panel average; conditions: Homo sapiens, read-out: cytotoxicity, average of all Ovarian Cancer cell lines
Renal Cancer cell lines = experiment: NCI full panel screen, panel average; conditions: Homo sapiens, read-out: cytotoxicity, average of all Renal Cancer cell lines
[4] = system: Prostate Cancer cell lines; experiment: NCI full panel screen, panel average; conditions: Homo sapiens, read-out: cytotoxicity, average of all Prostate Cancer cell lines
Breast Cancer cell lines = experiment: NCI full panel screen, panel average; conditions: Homo sapiens, read-out: cytotoxicity, average of all Breast Cancer cell lines
UACC-82 = conditions: read-out: GI50 UACC-82; Table 4

SMILES: N#Cc1ccccc1C#CC=CC#Cc1cnccn1 [Compound 30, 2-(6-(2-pyrazinyl)-3-hexen-1,5-diynyl)benzonitrile]
- Growth percentage, Breast cancer cell MCF-7 (Breast cancer cell MCF-7): 73%
- Growth percentage, Non-small cell Lung cancer cell NCI-H460 [1]: 8* %
- Growth percentage, CNS cancer cell SF-268 (CNS cancer cell SF-268): 84%
- GI50 (K-562): 4.88 µM
- CC50 (K-562): > 100 µM
- GI50 (NCI-H23): 15.9 µM
- GI50 (NCI-H522): 14.8 µM
- CC50 (NCI-H522): > 100 µM
- GI50 (KM12; read-out: GI50 KM12): 4.39 µM
- CC50 (KM12): > 100 µM
- GI50 (SW-620): 6.98 µM
- CC50 (SW-620): > 100 µM
- GI50 (SF-295): 17.6 µM
- CC50 (SF-295): > 100 µM
- GI50 (U251): 36.1 µM
- CC50 (U251): > 100 µM
- GI50 (SK-MEL-5): 19.6 µM
- CC50 (SK-MEL-5): > 100 µM
- GI50 (IGROV1): 46.2 µM
- CC50 (IGROV1): > 100 µM
- GI50 (CAKI-1): 21.6 µM
- CC50 (CAKI-1): > 100 µM
- GI50 (SN12C): 22.6 µM
- GI50 (PC-3): 30.9 µM
- GI50 (NCI/ADR-RES): 15.9 µM
- CC50 (NCI/ADR-RES): > 100 µM
- GI50 (MDA-MB-435): 5.3 µM
- GI50 (SR): 4.3 µM
- CC50 (SR): > 100 µM
- GI50 (OVCAR-3): 16.6 µM
- CC50 (OVCAR-3): > 100 µM
- GI50 (DU-145): 36.3 µM
- CC50 (DU-145): > 100 µM
- IC50 (Leukemia cell lines): 5.05 µM
- IC50 [2]: 11.8 µM
- IC50 (Colon Cancer cell lines): 7.54 µM
- IC50 (CNS Cancer cell lines): 32.2 µM
- IC50 (Melanoma cell lines): 18.7 µM
- IC50 [3]: 38.1 µM
- IC50 (Renal Cancer cell lines): 27 µM
- IC50 [4]: 33.6 µM
- IC50 (Breast Cancer cell lines): 33.3 µM

SMILES: N#Cc1ccccc1C#CC=CC#Cc1ccccn1 [Compound 27, 2-(6-(2-pyridinyl)-3-hexen-1,5-diynyl)benzonitrile]
- Growth percentage, Breast cancer cell MCF-7 (Breast cancer cell MCF-7): 49%
- Growth percentage, Non-small cell Lung cancer cell NCI-H460 [1]: 23* %
- Growth percentage, CNS cancer cell SF-268 (CNS cancer cell SF-268): 83%
- CC50 (K-562): > 100 µM
- GI50 (NCI-H23): 12.3 µM
- CC50 (NCI-H522): 84.7 µM
- CC50 (KM12): 80.4 µM
- GI50 (SW-620): 12.6 µM
- CC50 (SW-620): 80.5 µM
- GI50 (SF-295): 20.1 µM
- CC50 (SF-295): > 100 µM
- CC50 (U251): 79 µM
- GI50 (SK-MEL-5): 2.99 µM
- CC50 (SK-MEL-5): 41.6 µM
- GI50 (UACC-82): 15.3 µM
- GI50 (IGROV1): 17 µM
- CC50 (IGROV1): 79.1 µM
- GI50 (CAKI-1): 21.8 µM
- CC50 (CAKI-1): > 100 µM
- GI50 (SN12C): 20.4 µM
- GI50 (PC-3): 13.7 µM
- GI50 (NCI/ADR-RES): 16.5 µM
- CC50 (NCI/ADR-RES): 71 µM
- CC50 (SR): > 100 µM
- GI50 (OVCAR-3): 4.26 µM
- CC50 (OVCAR-3): 56.9 µM
- CC50 (DU-145): > 100 µM
- IC50 (Leukemia cell lines): 12.8 µM
- IC50 [2]: 19.6 µM
- IC50 (Colon Cancer cell lines): 16.3 µM
- IC50 (CNS Cancer cell lines): 20.9 µM
- IC50 (Melanoma cell lines): 14.2 µM
- IC50 [3]: 27.3 µM
- IC50 (Renal Cancer cell lines): 21.7 µM
- IC50 [4]: 21.2 µM
- IC50 (Breast Cancer cell lines): 14.3 µM

SMILES: N#Cc1ccccc1C#CC=CC#Cc1ccccc1N [Compound 32, 2-[6-(o-anilinyl)-3-hexen-1,5-diynyl]benzonitrile]
- Growth percentage, Breast cancer cell MCF-7 (Breast cancer cell MCF-7): 36%
- Growth percentage, Non-small cell Lung cancer cell NCI-H460 [1]: 8* %
- Growth percentage, CNS cancer cell SF-268 (CNS cancer cell SF-268): 27* %
- GI50 (K-562): 0.48 µM
- CC50 (K-562): > 100 µM
- GI50 (NCI-H23): 0.8 µM
- GI50 (NCI-H522): 0.3 µM
- CC50 (NCI-H522): 8.62 µM
- CC50 (KM12): > 100 µM
- GI50 (SW-620): 0.39 µM
- CC50 (SW-620): > 100 µM
- GI50 (SF-295): 0.24 µM
- CC50 (SF-295): 12.4 µM
- GI50 (U251): 0.43 µM
- CC50 (U251): > 100 µM
- GI50 (SK-MEL-5): 0.44 µM
- CC50 (SK-MEL-5): 33.1 µM
- GI50 (UACC-82): 0.37 µM
- GI50 (IGROV1): 0.27 µM
- CC50 (IGROV1): > 100 µM
- GI50 (CAKI-1): 0.13 µM
- CC50 (CAKI-1): 35.9 µM
- GI50 (SN12C): 0.41 µM
- GI50 (PC-3): 2.78 µM
- GI50 (NCI/ADR-RES): 0.37 µM
- CC50 (NCI/ADR-RES): > 100 µM
- GI50 (MDA-MB-435): 0.11 µM
- GI50 (SR): 0.25 µM
- CC50 (SR): > 100 µM
- GI50 (OVCAR-3): 0.17 µM
- CC50 (OVCAR-3): 98.4 µM
- GI50 (DU-145): 3.48 µM
- CC50 (DU-145): > 100 µM
- IC50 (Leukemia cell lines): 0.43 µM
- IC50 [2]: 1.7 µM
- IC50 (Colon Cancer cell lines): 0.47 µM
- IC50 (CNS Cancer cell lines): 9.44 µM
- IC50 (Melanoma cell lines): 0.77 µM
- IC50 [3]: 1.55 µM
- IC50 (Renal Cancer cell lines): 0.66 µM
- IC50 [4]: 3.13 µM
- IC50 (Breast Cancer cell lines): 2 µM
